Article PMC11808397, “Development of selective nanomolar cyclic peptide ligands as GBA1 enzyme stabilisers” (RSC Chemical Biology, 2025)
Positions of bridges follow the written chain, without caps; N, C: chain ends. Non-standard residues stand in square brackets, D forms with d. Residues, ends and D or L forms follow the SMILES beside them.

The molecules below were run against T1, GBA1 in fibroblast lysates (Homo sapiens, UniProt P04062) (assay: GBA1 inhibition in lysates of fibroblasts treated with peptides). Details: cells treated with peptides at increasing concentrations for 16 h, washed with PBS and homogenized; 4-MU assay.
T1 construct: host or cells: human dermal fibroblasts
T1 sequence (P04062 40-536): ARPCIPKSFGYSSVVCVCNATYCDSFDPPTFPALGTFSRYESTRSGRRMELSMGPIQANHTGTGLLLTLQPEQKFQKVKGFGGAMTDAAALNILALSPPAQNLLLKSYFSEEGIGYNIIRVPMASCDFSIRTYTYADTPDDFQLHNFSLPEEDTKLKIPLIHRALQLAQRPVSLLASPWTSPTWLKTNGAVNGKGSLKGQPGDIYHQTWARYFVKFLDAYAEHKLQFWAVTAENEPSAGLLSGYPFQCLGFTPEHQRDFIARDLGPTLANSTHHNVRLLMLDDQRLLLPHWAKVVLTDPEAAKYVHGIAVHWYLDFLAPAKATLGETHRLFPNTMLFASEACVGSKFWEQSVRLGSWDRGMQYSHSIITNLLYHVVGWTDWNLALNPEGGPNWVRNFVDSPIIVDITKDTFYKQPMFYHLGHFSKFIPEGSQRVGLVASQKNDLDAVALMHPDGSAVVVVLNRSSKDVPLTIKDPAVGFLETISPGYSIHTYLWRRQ
Assay type: cell-based
Procedure: We further investigated GBA1 inhibition in cells. Human dermal fibroblasts were initially incubated with peptide concentrations ranging from 0.1 μM (from 0.001 μM for L4, D1 and D12) to 100 μM of each cyclic peptide for […]. […] To further confirm the inability of these peptides to cross the cell membrane, we conducted in situ competitive activity-based protein profiling (cABPP) experiments using RAW 264.7 monocyte/macrophage-like cells. […] RAW 264.7 cells were then treated with increasing concentrations of cyclic peptides (0, 0.1, 1, 10, and 100 μM) for 4 hours, followed by exposure to a cell-penetrant Bodipy red broad spectrum GBA activity-based probe (ABP), JJB75[58] at 10 nM for 2 hours (Fig. S5 for chemical structures, ESI ^†). […] This cABPP experiment further confirms that the peptides are unable to cross the cell membrane (Fig. S6, ESI ^†).
Selective Cyclic Peptide Ligands as GBA1 Stabilizers Katzy et al. […]
Table S1. IC50 values for GBA1 inhibition in fibroblast lysates. Cells were treated with the peptides at increasing concentrations for 16 h, washed with PBS and homogenized. Reported values are mean ± standard deviation from 3 technical triplicates. N.D.: not determined.
Peptide GBA1 in fibroblast lysates
(1 picture or pasted object on this page, not shown here) […]
2.6. In situ cell studies
Human fibroblasts (Cambrex-Lonza CC-2511) were cultured in complete DMEM/F12 growth medium supplemented with 10% (v/v) foetal calf serum and 0.1 % (w/v) penicillin/streptomycin at 37 °C and 5% CO2. Cells were seeded in 12-well plates during passage and the incubations were started when cells were 80% - 100% confluent. Peptides were added in 500 µL medium (10 and 50 µM final concentration) and incubated overnight. After incubation cells were washed three times with cold PBS and harvested in 30 µL lysis buffer (25 mM KPi, pH 6,5 supplemented with 0.1% Triton-X 100 (v/v) and protease inhibitor). Lysates were frozen at -80 °C until use. GlcCer and GlcSph lipids were quantified as described below. In parallel, enzyme activity in cell lysates was measured using 3.7 mM 4-methylumbeliferone (4MU)-β-D-glucopyranoside in 150 mM McIlvaine buffer pH 5.2 supplemented with 0.1% bovine serum albumin (BSA) (w/v), 0.1% Triton X-100 (v/v), and 0.2% sodium taurocholate (w/v) as described above (see Table S1). […]
PBS and harvested in ice cold water. Lysates were kept at -80 °C until extraction.
2.7. 2.5. GlcCer and GlcSph lipid analysis
Levels of GlcCer and GlcSph were determined with a modified acidic Bligh & Dyer extraction (Figure 2 and S5).7 Briefly, after addition of internal standards (C17-dh-Ceramide and 13C5-Glucosylsphingosine), lipids were separated in an organic and an aqueous phase. The separated phases were dried under N2 or in a concentrator. The dried organic lower phase was reconstituted in 0.1 M NaOH in MeOH and underwent microwave-assisted deacylation. After neutralization, the samples were dried. Both phases were further extracted and desalted with equal amounts of water and butanol. The butanol phases were taken up to dryness and the lipids were dissolved in MeOH and transferred to MS vials for analysis in a LC-MS/MS system as described previously.7
2.8. Thermostability assays in rhGBA (Cerezyme)
Varying concentrations of peptides were incubated with 1 µM rhGBA1 in 20 mM HEPES pH 7.0 with 100 mM NaCl, with a final DMSO concentration of 0.5 %, for 2 hours at room temperature. Melting
An IC50 of 898 nM was found for `CC[C@H](C)[C@H](NC(=O)[C@H](CCCNC(=N)N)NC(=O)[C@@H]1CSCC(=O)N[C@@H](Cc2ccc(O)cc2)C(=O)N[C@@H](C)C(=O)N[C@@H](Cc2ccc(O)cc2)C(=O)N[C@@H](Cc2c[nH]c3ccccc23)C(=O)N[C@@H](Cc2c[nH]c3ccccc23)C(=O)N[C@@H](CC(C)C)C(=O)N1)C(=O)N1CCC[C@H]1C(=O)N[C@@H](Cc1c[nH]c2ccccc12)C(=O)N[C@@H](CC(C)C)C(=O)N[C@@H](CO)C(=O)N[C@H](C(N)=O)C(C)C` [L2] ({CH2CO}-YAYWWLCRIPWLSV-NH2; thioether N-7) in this work.
An IC50 of 5160 nM was found for `CC(C)C[C@H](NC(=O)[C@@H](NC(=O)[C@H](CCCNC(=N)N)NC(=O)[C@@H]1CSCC(=O)N[C@H](Cc2ccc(O)cc2)C(=O)N[C@@H]([C@@H](C)O)C(=O)N2CCC[C@H]2C(=O)NCC(=O)N[C@@H](Cc2ccc(O)cc2)C(=O)N[C@@H](C(C)C)C(=O)N[C@@H](Cc2ccc(O)cc2)C(=O)N1)C(C)C)C(=O)N[C@@H](CCCCN)C(=O)N[C@@H](Cc1ccc(O)cc1)C(=O)N[C@@H](CS)C(N)=O` [D8] ({CH2CO}-[dY]TPGYVYCRVLKYC-NH2; thioether N-8) in this work.
An IC50 of 39700 nM was found for `CC[C@H](C)[C@@H]1NC(=O)[C@H](CO)NC(=O)[C@H](CS)NC(=O)CNC(=O)CNC(=O)[C@H](CC(C)C)NC(=O)[C@H](Cc2ccc(O)cc2)NC(=O)[C@H](C(C)C)NC(=O)[C@H](CC(C)C)NC(=O)[C@H](CCCNC(=N)N)NC(=O)[C@@H]2CCCN2C(=O)[C@H](Cc2ccc(O)cc2)NC(=O)CSC[C@@H](C(N)=O)NC(=O)[C@H](CCC(=O)O)NC(=O)[C@H](CC(C)C)NC(=O)[C@H](CC(C)C)NC1=O` [L1] ({CH2CO}-YPRLVYLGGCSILLEC-NH2; thioether N-16) in this work.
An IC50 of 67 nM was found for `CC(C)C[C@@H]1NC(=O)CNC(=O)[C@H](Cc2ccccc2)NC(=O)[C@H](CC(C)C)NC(=O)[C@@H]2CCCN2C(=O)[C@H](Cc2ccc(O)cc2)NC(=O)CSC[C@@H](C(=O)N2CCC[C@H]2C(=O)N[C@@H](CC(N)=O)C(=O)N[C@@H](Cc2c[nH]c3ccccc23)C(=O)N[C@@H](Cc2ccccc2)C(=O)N2CCC[C@H]2C(=O)N[C@@H](Cc2ccc(O)cc2)C(=O)N[C@@H](CCC(N)=O)C(=O)N[C@@H](CS)C(N)=O)NC(=O)[C@H](CO)NC(=O)[C@H](Cc2ccccc2)NC1=O` [L4] ({CH2CO}-YPLFGLFSCPNWFPYQC-NH2; thioether N-9) in this work.
An IC50 of 22300 nM was found for `CC[C@H](C)[C@@H]1NC(=O)[C@H](Cc2ccc(O)cc2)NC(=O)CSC[C@@H](C(N)=O)NC(=O)[C@H](Cc2c[nH]c3ccccc23)NC(=O)[C@H](CCC(N)=O)NC(=O)[C@H]([C@@H](C)CC)NC(=O)[C@H]([C@@H](C)CC)NC(=O)[C@@H]2CCCN2C(=O)[C@H](C(C)C)NC(=O)[C@H](Cc2ccc(O)cc2)NC(=O)[C@H](Cc2c[nH]c3ccccc23)NC(=O)[C@H](CO)NC1=O` [L6] ({CH2CO}-YISWYVPIIQWC-NH2; thioether N-12) in this work.
An IC50 of 334 nM was found for `CC(C)C[C@@H]1NC(=O)CNC(=O)[C@H](CC(C)C)NC(=O)[C@@H](Cc2ccc(O)cc2)NC(=O)CSC[C@@H](C(N)=O)NC(=O)[C@H](CO)NC(=O)[C@H](CCCCN)NC(=O)[C@H](CC(C)C)NC(=O)[C@H](Cc2ccccc2)NC(=O)[C@H](CCCNC(=N)N)NC(=O)[C@H](Cc2ccc(O)cc2)NC(=O)[C@H](Cc2c[nH]c3ccccc23)NC1=O` [D12] ({CH2CO}-[dY]LGLWYRFLKSC-NH2; thioether N-12) in this work.
An IC50 of 440 nM was found for `CC[C@H](C)[C@H](NC(=O)[C@H](CC(C)C)NC(=O)[C@H](Cc1ccc(O)cc1)NC(=O)[C@H](Cc1ccc(O)cc1)NC(=O)[C@@H]1CSCC(=O)N[C@H](Cc2ccc(O)cc2)C(=O)N[C@@H](CCCNC(=N)N)C(=O)N[C@@H](C(C)C)C(=O)N1)C(=O)N[C@H](C(=O)N[C@H](C(=O)N[C@@H](CC(C)C)C(=O)N[C@@H](CC(=O)O)C(=O)N[C@@H](CS)C(N)=O)C(C)C)[C@@H](C)O` [D1] ({CH2CO}-[dY]RVCYYLITVLDC-NH2; thioether N-4) in this work.
